The experiment concerns the target T1, GPX4 (glutathione peroxidase 4) (Homo sapiens, UniProt P36969, U73C).
T1 sequence (P36969 33-197 U73C): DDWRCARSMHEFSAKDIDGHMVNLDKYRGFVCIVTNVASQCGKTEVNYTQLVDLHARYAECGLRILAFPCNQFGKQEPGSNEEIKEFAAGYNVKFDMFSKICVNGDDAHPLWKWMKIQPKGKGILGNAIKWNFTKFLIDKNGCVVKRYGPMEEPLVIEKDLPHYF
Put plainly: SPR. It is filed as binding.

Consider `COC(=O)c1ccc([C@H]2c3[nH]c4ccccc4c3C[C@H](C(=O)OC)N2C(C)=O)cc1` [RSL3-minus-Cl, Methyl (1S,3R)-2-acetyl-1-(4-(methoxycarbonyl)phenyl)-2,3,4,9-tetrahydro-1H-pyrido[3,4-b] indole-3-carboxylate], for which the dissociation constant Kd worked out at 60 µM.

For orientation: Kd means the free concentration of one partner at which half of the binding sites on the other are occupied at equilibrium, for simple one-to-one binding.

The values are drawn from paper PMC9772252 (Cell chemical biology, 2022).
